Data published in ChEMBL document CHEMBL1201862, “PubChem BioAssay data set” (2004).
Activity calls are given as the source filed them.

Key:
[1] = biological target: G-protein coupled receptor 55 (Homo sapiens, UniProt Q9Y2T6); assay: SAR analysis of selective Agonists of GPR55 using an Image-Based Assay - Set 2. [Related pubchem assays (depositor defined):AID1961, AID1965]; format: functional
Cannabinoid receptor 2 [2] = biological target: T1, Cannabinoid receptor 2 (Homo sapiens, UniProt P34972); assay: SAR analysis of agonists of the Cannabinoid Receptor 2 using an Image-Based Assay - Set 2. [Related pubchem assays (depositor defined):AID1961, AID1965]; format: functional
T1 sequence (P34972 whole entry): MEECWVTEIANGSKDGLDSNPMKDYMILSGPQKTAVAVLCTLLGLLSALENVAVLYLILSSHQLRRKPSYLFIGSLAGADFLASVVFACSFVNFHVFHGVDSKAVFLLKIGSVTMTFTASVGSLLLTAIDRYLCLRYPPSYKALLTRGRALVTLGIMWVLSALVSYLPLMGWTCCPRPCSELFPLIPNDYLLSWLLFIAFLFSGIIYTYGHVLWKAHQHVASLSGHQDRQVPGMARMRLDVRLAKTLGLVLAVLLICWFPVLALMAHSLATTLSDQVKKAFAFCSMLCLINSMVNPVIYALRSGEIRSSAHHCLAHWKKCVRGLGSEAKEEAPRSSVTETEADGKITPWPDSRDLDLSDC

Cannabinoid receptor 2 [3] = biological target: T1, Cannabinoid receptor 2; assay: SAR analysis of antagonists of the Cannabinoid Receptor 2 using an Image-Based Assay - Set 2. [Related pubchem assays (depositor defined):AID1961, AID1965]; format: functional
[4] = biological target: T2, G-protein coupled receptor 35 (Homo sapiens, UniProt Q9HC97); assay: SAR analysis of Agonists of the GPR35 Receptor using an Image-Based Assay - Set 3. [Related pubchem assays (depositor defined):AID1961, AID1965]; format: functional
T2 sequence (Q9HC97 whole entry): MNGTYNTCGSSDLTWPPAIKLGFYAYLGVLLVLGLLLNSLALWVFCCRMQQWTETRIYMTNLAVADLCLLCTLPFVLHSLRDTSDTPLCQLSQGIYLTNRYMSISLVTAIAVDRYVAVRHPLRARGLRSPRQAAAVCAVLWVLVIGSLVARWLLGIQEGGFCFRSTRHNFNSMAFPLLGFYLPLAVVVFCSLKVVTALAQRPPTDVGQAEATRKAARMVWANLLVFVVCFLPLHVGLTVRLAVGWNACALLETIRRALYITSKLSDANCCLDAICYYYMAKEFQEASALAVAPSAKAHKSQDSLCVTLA

[5] = biological target: T2, G-protein coupled receptor 35; assay: SAR analysis of Antagonists of the GPR35 Receptor using an Image-Based Assay - Set 4. [Related pubchem assays (depositor defined):[…]]; format: functional
Cannabinoid receptor 1 [6] = biological target: T3, Cannabinoid receptor 1 (Homo sapiens, UniProt P21554); assay: SAR analysis of agonists of the Cannabinoid Receptor 1 using an Image-Based Assay - Set 3. [Related pubchem assays (depositor defined):AID1961, AID1965]; format: functional
T3 sequence (P21554 whole entry): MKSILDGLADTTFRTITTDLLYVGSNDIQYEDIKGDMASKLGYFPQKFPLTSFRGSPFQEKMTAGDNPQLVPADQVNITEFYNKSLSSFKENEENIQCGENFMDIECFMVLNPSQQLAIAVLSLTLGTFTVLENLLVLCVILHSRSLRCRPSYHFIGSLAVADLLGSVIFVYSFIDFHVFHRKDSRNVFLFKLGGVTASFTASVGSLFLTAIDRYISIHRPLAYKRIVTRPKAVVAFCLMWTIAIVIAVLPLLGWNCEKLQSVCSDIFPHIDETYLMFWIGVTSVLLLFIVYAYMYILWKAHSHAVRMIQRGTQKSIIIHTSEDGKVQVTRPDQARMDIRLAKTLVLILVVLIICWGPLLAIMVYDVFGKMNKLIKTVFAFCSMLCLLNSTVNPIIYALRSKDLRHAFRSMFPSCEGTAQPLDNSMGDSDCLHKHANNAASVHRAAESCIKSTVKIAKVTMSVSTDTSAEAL

Cannabinoid receptor 1 [7] = biological target: T3, Cannabinoid receptor 1; assay: SAR analysis of antagonists of the Cannabinoid Receptor 1 using an Image-Based Assay - Set 3. [Related pubchem assays (depositor defined):AID1961, AID1965]; format: functional
[8] = biological target: Protein-tyrosine kinase 2-beta (Homo sapiens, UniProt Q14289);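 note: potency of inhibitors of PYK2 kinase phosphorylation of poly-GT substrate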
Sequence of Protein-tyrosine kinase 2-beta (Q14289 whole entry): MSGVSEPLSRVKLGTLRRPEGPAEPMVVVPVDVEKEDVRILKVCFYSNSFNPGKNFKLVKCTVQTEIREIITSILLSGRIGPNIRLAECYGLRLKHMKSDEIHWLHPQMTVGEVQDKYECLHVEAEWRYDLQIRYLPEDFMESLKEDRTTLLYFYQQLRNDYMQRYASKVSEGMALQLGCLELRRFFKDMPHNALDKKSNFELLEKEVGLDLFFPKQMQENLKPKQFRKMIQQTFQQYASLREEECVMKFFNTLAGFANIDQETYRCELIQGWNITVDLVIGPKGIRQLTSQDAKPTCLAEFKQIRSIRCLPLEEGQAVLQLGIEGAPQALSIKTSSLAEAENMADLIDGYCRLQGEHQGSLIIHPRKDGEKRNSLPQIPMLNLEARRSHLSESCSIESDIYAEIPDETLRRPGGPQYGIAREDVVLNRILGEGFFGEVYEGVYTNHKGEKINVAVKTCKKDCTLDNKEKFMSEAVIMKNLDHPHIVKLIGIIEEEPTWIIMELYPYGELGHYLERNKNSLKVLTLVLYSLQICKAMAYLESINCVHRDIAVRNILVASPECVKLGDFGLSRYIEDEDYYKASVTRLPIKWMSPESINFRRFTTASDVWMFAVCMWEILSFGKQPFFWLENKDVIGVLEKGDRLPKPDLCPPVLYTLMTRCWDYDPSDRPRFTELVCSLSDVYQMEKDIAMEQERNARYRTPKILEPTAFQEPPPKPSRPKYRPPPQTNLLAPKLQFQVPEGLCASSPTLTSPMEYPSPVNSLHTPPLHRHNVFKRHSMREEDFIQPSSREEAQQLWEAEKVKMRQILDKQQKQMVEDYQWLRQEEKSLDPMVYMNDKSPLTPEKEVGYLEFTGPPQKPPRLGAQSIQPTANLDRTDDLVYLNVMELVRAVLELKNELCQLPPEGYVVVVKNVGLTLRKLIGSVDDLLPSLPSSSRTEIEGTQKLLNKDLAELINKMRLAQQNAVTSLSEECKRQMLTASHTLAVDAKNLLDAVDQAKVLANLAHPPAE

[9] = viability of PTEN-deleted HCT116 cells – cell-based, HCT116 PTEN knockout, dose response (AID 1047); format: functional;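 note: HCT116 colon tumor cells with PTEN knocked out; cells exposed to compound for 60 hours before readout; potency for loss of cell viability measured by luminescence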
[10] = biological target: T4, Heat shock 70 kDa protein 1A (Homo sapiens, UniProt P0DMV8); assay: small molecules displacing fluorescent ligand from Hsp70 – biochemical, fluorescence polarization, primary screen (AID 583)
T4 sequence (P0DMV8 whole entry): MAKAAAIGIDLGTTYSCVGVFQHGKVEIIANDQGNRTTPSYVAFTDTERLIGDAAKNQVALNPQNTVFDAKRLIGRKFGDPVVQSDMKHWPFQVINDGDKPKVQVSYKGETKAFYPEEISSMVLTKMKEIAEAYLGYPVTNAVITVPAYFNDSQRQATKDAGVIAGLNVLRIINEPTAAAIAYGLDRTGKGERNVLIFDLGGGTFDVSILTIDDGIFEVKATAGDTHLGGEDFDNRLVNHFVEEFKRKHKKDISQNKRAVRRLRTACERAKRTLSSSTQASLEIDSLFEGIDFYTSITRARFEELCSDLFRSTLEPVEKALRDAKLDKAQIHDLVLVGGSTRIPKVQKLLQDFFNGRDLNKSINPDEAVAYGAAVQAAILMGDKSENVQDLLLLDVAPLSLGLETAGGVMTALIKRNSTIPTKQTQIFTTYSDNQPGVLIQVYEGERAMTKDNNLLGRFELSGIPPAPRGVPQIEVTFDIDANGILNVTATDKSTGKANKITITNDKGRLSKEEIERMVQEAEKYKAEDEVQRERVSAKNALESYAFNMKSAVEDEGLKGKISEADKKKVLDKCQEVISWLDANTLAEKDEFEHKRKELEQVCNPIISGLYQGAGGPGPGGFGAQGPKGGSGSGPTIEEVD

[11] = Luminescence Cell-Based Dose Response HTS to Identify Activators of Luciferase Translation or Activity in H4 […] Cells. [Related pubchem assays: 1829 (Project Summary), 1814 (Primary HTS)]; format: functional
X-box-binding protein 1 = biological target: T5, X-box-binding protein 1 (Homo sapiens, UniProt P17861); format: functional, Cricetulus griseus;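 note: confirmatory dose-response counter-screen serving a CHOP assay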
T5 sequence (P17861 whole entry): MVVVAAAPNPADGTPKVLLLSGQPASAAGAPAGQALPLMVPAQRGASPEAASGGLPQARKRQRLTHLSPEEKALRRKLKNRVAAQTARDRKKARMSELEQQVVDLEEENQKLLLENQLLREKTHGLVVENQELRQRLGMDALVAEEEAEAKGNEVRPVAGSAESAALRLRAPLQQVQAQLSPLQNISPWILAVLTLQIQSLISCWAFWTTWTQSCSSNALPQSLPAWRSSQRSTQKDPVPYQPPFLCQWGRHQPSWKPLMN

[12] = Luminescence Cell-Based Dose Confirmation HTS to Identify Activators of 5'UTR Stem-Loop Driven Alpha-Synuclein mRNA Translation in H4 Neuroglioblastoma Cells. [Related pubchem assays: 1829 (Project Summary), 1814 (Primary HTS)]; format: functional
[13] = Cytotoxicity screening for potential Inhibitors of Bacterial Capsule Biogenesis. [Related pubchem assays (depositor defined):AID488970]; format: functional
[14] = viability of HCT116 lacking mutant beta-catenin – cell-based, human colon tumor, dose response (AID 1045); format: functional;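 note: HCT116 colon tumor cells with beta catenin knocked out; cells exposed to compound for 60 hours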
[15] = biological target: T4, Heat shock 70 kDa protein 1A; assay: small-molecule inhibition of Hsp70 – biochemical, TR-FRET (AID 786)
H4 = assay: Luminescence Cell-Based Dose Response HTS to Identify Activators of 5'UTR Stem-Loop Driven Prion Protein mRNA Translation in H4 Neuroglioblastoma Cells. [Related pubchem assays: 1829 (Project Summary), 1814 (Primary HTS)]; format: functional; details: Homo sapiens
[16] = biological target: DNA dC->dU-editing enzyme APOBEC-3G (Homo sapiens, UniProt Q9HC16); assay: Dose Response confirmation of small molecule APOBEC3G DNA Deaminase Inhibitors via a fluorescence-based single-stranded DNA deaminase assay. [Related pubchem assays (depositor defined):AID493012, AID493028]; format: functional
[17] = biological target: DNA dC->dU-editing enzyme APOBEC-3A (Homo sapiens, UniProt P31941); assay: A3A deaminase inhibition for selectivity – biochemical, dose response (AID 504722); format: functional
Protein Rev = Protein Rev (Human immunodeficiency virus type 1 group M subtype B (isolate HXB2)(HIV-1), UniProt P04618); assay: blockers of HIV Rev/RRE RNA complex – biochemical, fluorescence polarization, HIV-1, dose response (AID 434976); parameters: species or system Human immunodeficiency virus 1
Sequence of Protein Rev (P04618 whole entry): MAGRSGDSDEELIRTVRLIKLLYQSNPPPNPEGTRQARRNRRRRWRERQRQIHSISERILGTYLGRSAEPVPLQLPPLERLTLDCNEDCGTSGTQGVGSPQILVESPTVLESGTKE

[18] = biological target: Female germline-specific tumor suppressor gld-1 (Caenorhabditis elegans, UniProt Q17339); assay: blockers of GLD-1/TGE RNA complex formation – biochemical, fluorescence polarization, C. elegans, dose response (AID 2802);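 note: fluorescence polarization of labeled TGE RNA bound by purified gld-1 protein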
Sequence of Female germline-specific tumor suppressor gld-1 (Q17339 whole entry): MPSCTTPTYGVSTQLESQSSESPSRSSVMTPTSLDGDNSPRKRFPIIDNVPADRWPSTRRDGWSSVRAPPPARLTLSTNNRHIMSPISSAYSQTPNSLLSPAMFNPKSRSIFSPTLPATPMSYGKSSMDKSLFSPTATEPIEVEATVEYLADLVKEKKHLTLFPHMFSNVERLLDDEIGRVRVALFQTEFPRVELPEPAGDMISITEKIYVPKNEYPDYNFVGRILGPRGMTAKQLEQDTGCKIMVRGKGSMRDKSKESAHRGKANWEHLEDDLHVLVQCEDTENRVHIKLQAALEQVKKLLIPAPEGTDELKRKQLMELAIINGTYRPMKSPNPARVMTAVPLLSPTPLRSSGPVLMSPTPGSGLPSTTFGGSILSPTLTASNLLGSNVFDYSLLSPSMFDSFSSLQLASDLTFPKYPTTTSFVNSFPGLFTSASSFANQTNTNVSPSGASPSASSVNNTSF

[19] = biological target: T6, Protein phosphatase methylesterase 1 (Homo sapiens, UniProt Q9Y570); assay: endogenous PME-1 and serine hydrolase inhibition – cell lysate, mouse brain cytosol, FP-rhodamine, gel ABPP, selectivity assay for PME-1 inhibitor project, dose response, panel member PME-1 Assay Panel member description: Inhibition of endogenously expressed PME-1 (AID 2366)
T6 sequence (Q9Y570 whole entry): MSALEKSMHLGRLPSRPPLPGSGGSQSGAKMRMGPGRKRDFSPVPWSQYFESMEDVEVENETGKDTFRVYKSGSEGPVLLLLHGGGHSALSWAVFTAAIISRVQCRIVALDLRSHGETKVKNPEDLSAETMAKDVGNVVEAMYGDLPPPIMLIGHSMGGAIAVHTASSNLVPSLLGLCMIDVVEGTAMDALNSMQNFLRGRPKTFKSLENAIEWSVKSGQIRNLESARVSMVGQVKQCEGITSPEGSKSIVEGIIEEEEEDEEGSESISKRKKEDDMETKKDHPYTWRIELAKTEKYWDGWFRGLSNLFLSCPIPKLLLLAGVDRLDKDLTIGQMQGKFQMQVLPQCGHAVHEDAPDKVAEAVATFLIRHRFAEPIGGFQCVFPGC

[20] = biological target: T6, Protein phosphatase methylesterase 1; assay: Late stage results from the probe development effort to identify inhibitors of the protein methylesterase PME-1: Gel-based Activity-Based Protein Profiling (ABPP) IC50: Purified enzyme.; format: functional
[21] = biological target: Signal transducer and activator of transcription 3 (Homo sapiens, UniProt P40763); assay: STAT3 activation with BCL3 mRNA and toxicity – cell-based, […], BCL3 qPCR, cytotoxicity, late-stage follow-up, panel member STAT3 Activation (AID 2049)
Sequence of Signal transducer and activator of transcription 3 (P40763 whole entry): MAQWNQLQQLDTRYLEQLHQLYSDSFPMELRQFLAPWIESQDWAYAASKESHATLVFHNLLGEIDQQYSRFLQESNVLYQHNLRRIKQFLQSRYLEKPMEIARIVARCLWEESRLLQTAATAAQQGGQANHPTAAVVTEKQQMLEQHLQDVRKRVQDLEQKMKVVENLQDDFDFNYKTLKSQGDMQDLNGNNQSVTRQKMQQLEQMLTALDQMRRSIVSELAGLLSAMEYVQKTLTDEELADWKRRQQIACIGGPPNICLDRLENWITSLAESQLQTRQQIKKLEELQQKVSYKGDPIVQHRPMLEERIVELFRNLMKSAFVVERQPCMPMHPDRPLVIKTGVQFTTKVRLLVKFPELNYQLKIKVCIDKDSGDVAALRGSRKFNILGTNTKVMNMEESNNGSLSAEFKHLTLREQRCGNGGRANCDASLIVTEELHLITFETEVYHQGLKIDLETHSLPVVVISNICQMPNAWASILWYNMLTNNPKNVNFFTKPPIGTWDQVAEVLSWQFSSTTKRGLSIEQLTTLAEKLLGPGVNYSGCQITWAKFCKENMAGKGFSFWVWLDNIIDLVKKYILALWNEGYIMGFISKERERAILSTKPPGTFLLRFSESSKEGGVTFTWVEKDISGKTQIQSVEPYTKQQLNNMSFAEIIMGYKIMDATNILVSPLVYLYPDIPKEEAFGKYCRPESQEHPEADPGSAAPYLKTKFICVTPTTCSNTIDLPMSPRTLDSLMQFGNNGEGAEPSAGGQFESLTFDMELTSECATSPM

Sequence of G-protein coupled receptor 55 (Q9Y2T6 whole entry): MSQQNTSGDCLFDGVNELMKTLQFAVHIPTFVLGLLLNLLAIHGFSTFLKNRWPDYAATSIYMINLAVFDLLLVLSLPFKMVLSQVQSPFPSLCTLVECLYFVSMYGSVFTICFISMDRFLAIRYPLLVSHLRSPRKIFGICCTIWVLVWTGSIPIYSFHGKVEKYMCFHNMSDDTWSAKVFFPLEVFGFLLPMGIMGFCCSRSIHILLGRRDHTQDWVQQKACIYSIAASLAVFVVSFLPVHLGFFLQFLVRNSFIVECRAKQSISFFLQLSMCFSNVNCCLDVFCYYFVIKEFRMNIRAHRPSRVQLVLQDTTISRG

In the case of `O=C(Nc1cc(S(=O)(=O)N2CCOCC2)ccc1Cl)c1cc2c(s1)CCCC2`, the EC50 [1] is reported as 0.779 µM (active), the EC50 (Cannabinoid receptor 2 [2]) is reported as > 32 µM (inactive) and the IC50 (Cannabinoid receptor 2 [3]) is reported as > 32 µM (inactive). The EC50 [4] was > 32 µM (inactive), the IC50 [5] was > 32 µM (inactive) and the EC50 (Cannabinoid receptor 1 [6]) was 7.87 µM (active). The IC50 (Cannabinoid receptor 1 [7]) was > 32 µM (inactive).

For `O=C(ONc1ccc(N=NC(=O)c2ccccc2O)cc1)c1ccccc1`, the IC50 [8] was 5.49 µM (active), the EC50 [9] was 20 µM (active) and the IC50 [10] was 11.7 µM (active). The EC50 [11] was 10.1 µM (active), the “Absolute IC50 (XBP1)” value (X-box-binding protein 1) was 10 µM and the EC50 [12] was > 120 µM (not active). For the same compound, the CC50 [13] was 45.1 µM (active), the EC50 [14] was 21.1 µM (active) and the IC50 [15] was > 100 µM (not active). The EC50 (H4) was 28.8 µM (active).

With `FC(F)Oc1ccc(/C=N/n2c(S)nnc2Cc2ccc(Br)cc2)cc1` the IC50 [16] was 6.93 µM (active) and the IC50 [17] was > 100 µM (inactive).

With `COc1ccc(/C=C(\CC(=O)O)c2nc3ccccc3s2)cc1O` the IC50 (Protein Rev) was > 75.4 µM (not active) and the IC50 [18] was 2.43 µM (active).

For `CS(=O)(=O)/C(C#N)=C/c1ccc([N+](=O)[O-])cc1`, the IC50 [19] was > 20 µM (inactive) and the IC50 [20] was > 20 µM (not active).

With `Nc1c(C(=O)Nc2ccccc2)noc1C(=O)c1ccccc1` the EC50 [21] was > 55.7 µM (inactive).
